The target of one assay is T1, BRD9 bromodomain (Flag-BRD9 P133-K239; Swiss Prot Q9H8M2) (Homo sapiens, UniProt Q9H8M2).
T1 construct: His-Flag-BRD9 (P133-K239); Swiss Prot Q9H8M2; His6 with TEV site (mgsshhhhhhenlyfq/) (N, cleaved yes); made in house
T1 sequence (Q9H8M2 133-239): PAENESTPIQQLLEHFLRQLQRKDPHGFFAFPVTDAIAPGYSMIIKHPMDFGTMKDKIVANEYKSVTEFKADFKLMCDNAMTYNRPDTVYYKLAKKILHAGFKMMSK
Nature of the assay: BRD9 bromodomain TR-FRET competition binding assay. To be noted: 3 nM Flag-BRD9, 3.75 nM biotinylated ligand, 90 minutes at room temperature. As to the method:
Cleaved His tag was removed by purification. […] DMSO or 3-fold serially diluted compounds were then added to the Proxiplate followed by addition of Flag-BRD9. After a 10-minute incubation at room temperature, Eu-W1024 anti-FLAG (PerkinElmer, AD0273) was added.
Background: Time-resolved FRET reads energy transfer from a long-lived donor to a nearby acceptor.
In the case of `Cn1cc(-c2cccc(C(F)(F)F)c2)c2sc(C(=N)NC3CCS(=O)(=O)NC3)cc2c1=O` (stereo not shown) [Compound B1, N-(1,1-dioxo-1λ6,2-thiazinan-4-yl)-5-methyl-4-oxo-7-[3-(trifluoromethyl)phenyl]thieno[3,2-c]pyridine-2-carboximidamide], the IC50 (in general, the concentration needed to halve the response being measured) was > 10 nM.

Consider `COc1cc(-c2cn(C)c(=O)c3cc(-c4nc5ccncc5[nH]4)sc23)cc(OC)c1CN(C)C` [Compound B2, 7-[4-[(dimethylamino)methyl]-3,5-dimethoxyphenyl]-2-[3H-imidazo[4,5-c]pyridin-2-yl]-5-methylthieno[3,2-c]pyridin-4-one], for which the IC50 is < 10 nM.

As for `COc1cc(-c2cn(C)c(=O)c3cc(NC(=O)C4CCN(C)CC4)sc23)cc(OC)c1CN(C)C` [Compound B3, N-(7-[4-[(dimethylamino)methyl]-3,5-dimethoxyphenyl]-5-methyl-4-oxo-4H,5H-thieno[3,2-c]pyridin-2-yl)-1-methylpiperidine-4-carboxamide], the concentration for half-maximal inhibition (IC50) was > 10 nM.

`COc1cc(-c2cn(C)c(=O)c3cc(NC(=O)C4CN(C)CCO4)sc23)cc(OC)c1CN(C)C` (stereo not shown) [Compound B4, N-(7-[4-[(Dimethylamino)methyl]-3,5-dimethoxyphenyl]-5-methyl-4-oxo-4H,5H-thieno[3,2-c]pyridin-2-yl)-4-methylmorpholine-2-carboxamide Formic Acid]: the IC50 is > 10 nM.

Turning to `COc1cc(-c2cn(C)c(=O)c3cc(C(=O)NC4CCC(=O)NC4)sc23)cc(OC)c1CN(C)C` (stereo not shown) [Compound B5, 7-[4-[(dimethylamino)methyl]-3,5-dimethoxyphenyl]-5-methyl-4-oxo-N-(6-oxopiperidin-3-yl)-4H,5H-thieno[3,2-c]pyridine-2-carboxamide], the half-maximal inhibitory concentration (IC50) was < 10 nM.

Regarding `COc1cc(-c2cn(C)c(=O)c3cc(C(=O)NC4CCN(C)CC4)sc23)cc(OC)c1CN(C)C` [Compound B6, 7-[4-[(dimethylamino)methyl]-3,5-dimethoxyphenyl]-5-methyl-N-(1-methylpiperidin-4-yl)-4-oxo-4H,5H-thieno[3,2-c]pyridine-2-carboxamide], the IC50 is < 10 nM.

As to `COc1cc(-c2cn(C)c(=O)c3cc(C(=O)N4CCN(C)CC4)sc23)cc(OC)c1CN(C)C` [Compound B7, 7-[4-[(dimethylamino)methyl]-3,5-dimethoxyphenyl]-5-methyl-2-(4-methylpiperazine-1-carbonyl)-4H,5H-thieno[3,2-c]pyridin-4-one], the IC50 is > 100 nM.

For the compound `COc1cc(-c2cn(C)c(=O)c3cc(C(=N)NC4CCS(=O)(=O)CC4)sc23)ccc1OCC(=O)O` [Compound B8, 2-(4-[2-[N-(1,1-dioxo-1λ6-thian-4-yl)carbamimidoyl]-5-methyl-4-oxo-4H,5H-thieno[3,2-c]pyridin-7-yl]-2-methoxyphenoxy)acetic Acid Trifluoroacetic Acid], the IC50 was > 10 nM.

With `COc1ccc(-c2cn(C)c(=O)c3cc(-c4ncc[nH]4)sc23)cc1OC` [Compound B9, 7-(3,4-dimethoxyphenyl)-2-(1H-imidazol-2-yl)-5-methyl-4H,5H-thieno[3,2-c]pyridine-4-one], the IC50 is > 10 nM.

Turning to `COc1ccc(-c2cn(C)c(=O)c3ccsc23)cc1OC` [Compound B10, 7-(3,4-dimethoxyphenyl)-5-methyl-4H,5H-thieno[3,2-c]pyridin-4-one], the IC50 is > 10 nM.

Turning to `COc1cc(-c2cn(C)c(=O)c3cc(NC(=O)C4CCN(C)CC4)sc23)cc(OC)c1CN(C)CC(=O)NCCOCCOc1cccc2c1C(=O)N(C1CCC(=O)NC1=O)C2=O` (stereo not shown) [Compound D1, N-[7-(4-[[([[2-(2-[[2-(2,6-dioxopiperidin-3-yl)-1,3-dioxoisoindol-4-yl]oxy]ethoxy)ethyl]carbamoyl]methyl)(methyl)amino]methyl]-3,5-dimethoxyphenyl)-5-methyl-4-oxothieno[3,2-c]pyridin-2-yl]-1-methylpiperidine-4-carboxamide], the IC50 was > 100 nM.

Another assay concerns the target T2, Nanoluciferase-BRD9 fusion protein (3×FLAG-NLuc-BRD9) in SYO-1 cells (Homo sapiens, UniProt Q9H8M2).
T2 construct: expressed in transfected cells; host or cells: SYO-1
T2 sequence (Q9H8M2 1-597): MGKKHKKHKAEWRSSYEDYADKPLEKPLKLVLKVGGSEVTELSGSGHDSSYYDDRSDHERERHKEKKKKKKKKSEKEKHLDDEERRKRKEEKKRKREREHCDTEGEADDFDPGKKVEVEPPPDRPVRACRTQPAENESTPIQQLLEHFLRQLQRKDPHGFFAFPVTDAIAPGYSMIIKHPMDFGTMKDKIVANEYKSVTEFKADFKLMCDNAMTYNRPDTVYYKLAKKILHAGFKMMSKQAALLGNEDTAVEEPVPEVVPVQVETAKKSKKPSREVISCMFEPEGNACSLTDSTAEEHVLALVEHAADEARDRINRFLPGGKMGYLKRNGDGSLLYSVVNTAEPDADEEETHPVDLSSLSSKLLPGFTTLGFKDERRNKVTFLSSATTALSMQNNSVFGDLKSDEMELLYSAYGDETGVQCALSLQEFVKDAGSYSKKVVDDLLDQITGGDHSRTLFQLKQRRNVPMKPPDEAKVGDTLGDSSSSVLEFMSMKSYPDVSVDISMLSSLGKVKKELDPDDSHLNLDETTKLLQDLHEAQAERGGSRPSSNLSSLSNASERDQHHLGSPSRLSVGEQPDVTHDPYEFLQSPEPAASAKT
Nature of the assay: SYO1 BRD9 NanoLuc degradation assay. The format is cell-based. Conditions: 6 hours treatment, 1 μM top dose; read-out: SYO1 BRD9-NanoLuc degradation IC50. Summed up: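 Stable SYO-1 line expressing 3×FLAG-NLuc-BRD9 was seeded at 8000 cells/well, then treated next day for 6 h with 10-point 3-fold dilutions (top 1 μM final). Nano-Glo luminescence was read. % inhibition was normalised to DMSO (high control) and 1 μM reference BRD9 degrader (low control).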
For the compound `COc1cc(-c2cn(C)c(=O)c3cc(NC(=O)C4CCN(C)CC4)sc23)cc(OC)c1CN(C)CC(=O)NCCOCCOc1cccc2c1C(=O)N(C1CCC(=O)NC1=O)C2=O` (stereo not shown) [Compound D1, N-[7-(4-[[([[2-(2-[[2-(2,6-dioxopiperidin-3-yl)-1,3-dioxoisoindol-4-yl]oxy]ethoxy)ethyl]carbamoyl]methyl)(methyl)amino]methyl]-3,5-dimethoxyphenyl)-5-methyl-4-oxothieno[3,2-c]pyridin-2-yl]-1-methylpiperidine-4-carboxamide], the DC50 is > 1000 nM.

Still in this assay, the particulars now being: Table 6C; SYO-1 cells expressing 3×FLAG-NLuc-BRD9, 6 hours incubation, 1 μM top dose; read-out: SYO1 BRD9-NanoLuc degradation IC50.
For `COc1cc(-c2cn(C)c(=O)c3sccc23)cc(OC)c1CN1CCC(CN2CCC3(CC2)CC(Oc2ccc4c(c2)CN(C2CCC(=O)NC2=O)C4=O)C3)CC1` (stereo not shown) [Compound D199], the DC50 is < 10 nM.

As to `COc1cc(-c2cn(C)c(=O)c3cc(C(=O)NC4CCN(CCN5CCN(c6ccc7c(c6)C(=O)N(C6CCC(=O)NC6=O)C7)CC5)CC4(F)F)sc23)cc(OC)c1CN(C)C` (stereo not shown) [Compound D200], the DC50 is < 10 nM.

With `COc1cc(-c2cn(C)c(=O)c3sncc23)cc(OC)c1CN1CC(CN2CCC3(CC2)CN(c2ccc4c(c2)C(=O)N(C2CCC(=O)NC2=O)C4)C3)C1` (stereo not shown) [Compound D201], the DC50 is < 10 nM.

Regarding `COc1cc(-c2cn(C)c(=O)c3ncsc23)cc(OC)c1CN1CCC2(CC1)CN(c1ccc3c(c1)C(=O)N(C1CCC(=O)NC1=O)C3=O)C2` (stereo not shown) [Compound D202], the DC50 was < 10 nM.

For `COc1cc(-c2cn(C)c(=O)c3sncc23)cc(OC)c1CN1CCC2(CC1)CN(c1ccc3c(c1)C(=O)N(C1CCC(=O)NC1=O)C3)C2` (stereo not shown) [Compound D203], the DC50 is < 10 nM.

In the case of `COc1cc(-c2cn(C)c(=O)c3ncsc23)cc(OC)c1CN1CCC2(CC1)CN(c1ccc3c(c1)C(=O)N(C1CCC(=O)NC1=O)C3)C2` (stereo not shown) [Compound D204], the DC50 is > 100 nM.

Regarding `COc1cc(-c2cn(C)c(=O)c3ncsc23)cc(OC)c1CN1CC(Oc2ccc3c(c2)CN(C2CCC(=O)NC2=O)C3=O)C1` (stereo not shown) [Compound D206], the DC50 was < 10 nM.

Turning to `COc1cc(-c2cn(C)c(=O)c3sccc23)cc(OC)c1CN1CCC2(CC1)CN(c1ccc3c(c1)C(=O)N(C1CCC(=O)NC1=O)C3)C2` (stereo not shown) [Compound D207], the DC50 was < 10 nM.

Turning to `COc1cc(-c2cn(C)c(=O)c3cscc23)cc(OC)c1CN1CCC2(CC1)CN(c1ccc3c(c1)C(=O)N(C1CCC(=O)NC1=O)C3=O)C2` (stereo not shown) [Compound D208], the DC50 is < 10 nM.

Turning to `COc1cc(-c2cn(C)c(=O)c3cnsc23)cc(OC)c1CN1CCC2(CC1)CN(c1ccc3c(c1)C(=O)N(C1CCC(=O)NC1=O)C3=O)C2` (stereo not shown) [Compound D209], the DC50 is < 10 nM.

For the compound `Cn1cc(-c2cccc(C(F)(F)F)c2)c2oc(C(=O)NC3CCN(c4ccc5c(c4)C(=O)N(C4CCC(=O)NC4=O)C5)CC3)cc2c1=O` (stereo not shown) [Compound D211], the DC50 was > 10 nM.

`COc1cc(-c2cn(C)c(=O)c3ncsc23)cc(OC)c1CN1CC(Oc2ccc3c(c2)C(=O)N(C2CCC(=O)NC2=O)C3)C1` (stereo not shown) [Compound D212]: the DC50 is < 10 nM.

As for `COc1cc(-c2cn(C)c(=O)c3cnsc23)cc(OC)c1CN1CC(Oc2ccc3c(c2)C(=O)N(C2CCC(=O)NC2=O)C3)C1` (stereo not shown) [Compound D213], the DC50 was < 10 nM.

`COc1cc(-c2cn(C)c(=O)c3nc(C)sc23)cc(OC)c1CN1CCC2(CC1)CN(c1ccc3c(c1)C(=O)N(C1CCC(=O)NC1=O)C3)C2` (stereo not shown) [Compound D214]: the DC50 was < 10 nM.

Consider `COc1cc(-c2cn(C)c(=O)c3scnc23)cc(OC)c1CN1CCC2(CC1)CN(c1ccc3c(c1)C(=O)N(C1CCC(=O)NC1=O)C3)C2` (stereo not shown) [Compound D215], for which the DC50 was < 10 nM.

`COc1cc(-c2cn(C)c(=O)c3cscc23)cc(OC)c1CN1CCC2(CC1)CN(c1ccc3c(c1)C(=O)N(C1CCC(=O)NC1=O)C3)C2` (stereo not shown) [Compound D216]: the DC50 was < 10 nM.

As for `COc1cc(-c2cn(C)c(=O)c3ocnc23)cc(OC)c1CN1CCC2(CC1)CN(c1ccc3c(c1)C(=O)N(C1CCC(=O)NC1=O)C3)C2` (stereo not shown) [Compound D217], the DC50 was < 10 nM.

In the case of `COc1cc(-c2cn(C)c(=O)c3cc(C(=O)NC4CCN(c5ccc6c(c5)C(=O)N(C5CCC(=O)NC5=O)C6)CC4(F)F)oc23)cc(OC)c1CN(C)C` (stereo not shown) [Compound D218], the DC50 was > 10 nM.

Turning to `COc1cc(OC)cc(-c2cn(C)c(=O)c3cc(C(=O)NC4CCN(c5ccc6c(c5)C(=O)N(C5CCC(=O)NC5=O)C6)CC4)oc23)c1` (stereo not shown) [Compound D219], the DC50 is < 10 nM.

Turning to `COc1cc(-c2cn(C)c(=O)c3ccsc23)cc(OC)c1CN1CCC(CN2CCC3(CC2)CC(Oc2ccc4c(c2)CN(C2CCC(=O)NC2=O)C4=O)C3)CC1` (stereo not shown) [Compound D220], the DC50 is < 10 nM.

`COc1cc(-c2cn(C)c(=O)c3cc(C(=O)NC4CCN(C(=O)c5csc(C(=O)c6c[nH]c7ccccc67)n5)CC4(F)F)sc23)cc(OC)c1CN(C)C` (stereo not shown) [DD1]: the DC50 is > 1000 nM.

As for `COc1cc(-c2cn(C)c(=O)c3ccsc23)cc(OC)c1CN1CCN(C(=O)c2csc(C(=O)c3c[nH]c4ccccc34)n2)CC1` [DD2], the DC50 is > 1000 nM.

The record behind these values is patent publication US12686687B2, “Compounds and uses thereof” (Foghorn Therapeutics Inc., priority 2019, dated 2026).
